The experiment relates to PMN-Elastase. Kind of experiment: PMN-Elastase inhibition assay with chromogenic substrate. It counts as biochemical, human. As to conditions: substrate methoxysuccinyl-Ala-Ala-Pro-Val-p-nitroanilide, 405 nm absorption, semiquantitative. Here is the method:
PMN-Elastase was isolated and purified from human neutrophile as depicted in Recent Advances In Connective Tissue Research, 1986, Bukhauser Verlag, Basel, Boston, Stuttgart, C. Arsenis, E. S.-M. A. Thomar, and K. E. Kuettner, pages 63-68, incorporated herein by reference. It has essentially no cathepsin-G activity. The enzyme was tested against its natural substrates, such as type IV collagen, insoluble amorphous elastin, and against the specific synthetic substrate Methoxysuccinyl-L-Alanyl-L-Alanyl-L-Prolyl-L-Valyl-p-nitro-anilide, from which a DMSO stock solution was made. See The Journal of Bioloqical Chemistry, Vol. 254, pp. 4027-4032, 1979, K. Nakajima, J. C. Powers, B. M. Ashe, and M. Zimmerman, incorporated herein by reference. Aliquots were diluted with assay buffer for each measurement.
30 microliters (2.5-15 micrograms protein/ml) of PMN-Elastase was poured into a 96 well-plate, and 70 microliters of sample were added and incubated for 30 minutes at 30° C. After addition of 100 microliters substrate solution (methoxy-succinyl-L-Alanyl-L-Alanyl-L-Prolyl-L-Valyl-p-nitroanilide) in DMSO, dilution to 3 mM was effected with a buffer solution of 20 mM Tris and 500 mM NaCl at pH 7.3 (final DMSO concentration 10%). […] By varying the enzyme quantities, semiquantitative relationships were obtained.

“serum albumin: 68 KD blood contaminant in the high molecular weight fraction of the cartilage extract”: the PMN-Elastase inhibitory activity entry was “inhibit the PMN-Elastase to a certain extent”.

Source of the values: patent US4746729A, “Cartilage-derived leukocyte elastase-inhibitor” (priority 1986, dated 1988).
